Consider one compound from patent US20230355647A1, “Marker for determining anti-cancer effects of mitochondrial oxidative phosphorylation pathway inhibitor” (NANJING SHIJIANG MEDICINE TECHNOLOGY CO., LTD, priority 2020, published 2023).

Holding throughout (type): cell-based
For experiment [1], the system named is NCI-H82. Nature of the experiment: Cell viability (CellTiter-Glo), NCI-H82. The note with it: Homo sapiens; NCI-H82 cell line, 3-4 days of culture. On the procedure:
(§1) Cell viability was detected using the Promega CellTiter-Glo kit, the kit reflected cell viability by directly measuring intracellular ATP content. The inhibitory effect (IC50 value) of Gboxin, a mitochondrial oxidative phosphorylation pathway inhibitor, on different tumor cell lines was tested in the Example. The name, source, and culture condition of each tumor cell line were as follows: Cell line NCI-H82 (ATCC, No. HTB-175) was cultured in 10% fetal bovine serum-containing RPMI1640 medium (+P/S). […] Cell viability was detected using the Promega CellTiter-Glo kit, the kit reflected cell viability by directly measuring intracellular ATP content.
A general note: Cellular ATP, detected with luciferase, serves as a proxy for viable cell number.

Experiment [2] has as its system ACHN. Nature of the experiment: Cell viability (CellTiter-Glo), ACHN. The note with it: Homo sapiens; ACHN cell line, 3-4 days of culture. On the procedure: (§2) Cell viability was detected using the Promega CellTiter-Glo kit, the kit reflected cell viability by directly measuring intracellular ATP content. The inhibitory effect (IC50 value) of Gboxin, a mitochondrial oxidative phosphorylation pathway inhibitor, on different tumor cell lines was tested in the Example. The name, source, and culture condition of each tumor cell line were as follows:
Cell line ACHN (ATCC, No. CRL-1611) was cultured in 10% fetal bovine serum-containing EMEM medium (+P/S).
(§3) The above tumor cells were cultured in the relevant medium (+P/S), and incubated for 3 h, then the gradient diluted Gboxin was added, and IC50 (50% inhibiting concentration) was measured after 3-4 days of culture.

Experiment [3] relates to G-401. Nature of the experiment: Cell viability (CellTiter-Glo), G-401. The settings on record: Homo sapiens; G-401 cell line, 3-4 days of culture. How it is done:
as §1, with “G-401” for “NCI-H82”, “CRL-1441)” for “HTB-175)”, “McCoy's 5a” for “RPMI1640”

Experiment [4] relates to MDA-MB-231. Nature of the experiment: Cell viability (CellTiter-Glo), MDA-MB-231. The note with it: Homo sapiens; MDA-MB-231 cell line, 3-4 days of culture. On the procedure: as §2
Cell line MDA-MB-231 (ATCC, No. HTB-26) was cultured in 10% fetal bovine serum-containing Leibovitz's L-15 medium (+P/S).
as §3

Experiment [5] deals with OCI-LY-19. The experiment is described as follows: Cell viability (CellTiter-Glo), OCI-LY-19. The settings on record: Homo sapiens, OCI-LY19; OCI-LY-19 cell line, 3-4 days of culture. On the procedure: as §2
Cell line OCI-LY-19 (DSMZ, No. ACC-528) was cultured in 80-90% alpha-MEM medium containing 10-20% h.i. FBS (+P/S).
as §3

Experiment [6] concerns G-361. The experiment is described as follows: Cell viability (CellTiter-Glo), G-361. The note with it: Homo sapiens; G-361 cell line, 3-4 days of culture. How it is done:
as §2
Cell line G-361 (ATCC, No. CRL-1424) was cultured in 10% fetal bovine serum-containing McCoy's 5a medium (+P/S).
as §3

In experiment [7] the test system is MIA PaCa-2. Nature of the experiment: Cell viability (CellTiter-Glo), MIA PaCa-2. The settings on record: Homo sapiens; MIA PaCa-2 cell line, 3-4 days of culture. How it is done: as §2
Cell line MIA PaCa-2 (ATCC, No. CRL-1420) was cultured in 10% fetal bovine serum-containing DMEM medium (+P/S).
as §3

The test system of experiment [8] is CFPAC-1. The experiment is described as follows: Cell viability (CellTiter-Glo), CFPAC-1. The settings on record: Homo sapiens; CFPAC-1 cell line, 3-4 days of culture. How it is done:
as §1, with “CFPAC-1” for “NCI-H82”, “CRL-1918)” for “HTB-175)”, “IMDM” for “RPMI1640”

In experiment [9] the test system is NCI-H2081. Nature of the experiment: Cell viability (CellTiter-Glo), NCI-H2081. The settings on record: Homo sapiens; NCI-H2081 cell line, 3-4 days of culture. On the procedure: as §2
Cell line NCI-H2081 (ATCC, No. CRL-5920) was cultured in 5% fetal bovine serum-containing HITES medium (+P/S).
as §3

Experiment [10] has as its system WSU-DLCL2. The experiment is described as follows: Cell viability (CellTiter-Glo), WSU-DLCL2. The settings on record: Homo sapiens, WSUDLCL2; WSU-DLCL2 cell line, 3-4 days of culture. On the procedure:
as §1, with “WSU-DLCL2 (DSMZ,” for “NCI-H82 (ATCC,”, “ACC-575)” for “HTB-175)”

Experiment [11] deals with SU.86.86. Nature of the experiment: Cell viability (CellTiter-Glo), SU.86.86. The settings on record: Homo sapiens; SU.86.86 cell line, 3-4 days of culture. How it is done: as §2
Cell line SU.86.86 (ATCC, No. CRL-1837) was cultured in 10% fetal bovine serum-containing RPMI1640 medium (+P/S).
as §3

Experiment [12] deals with H9. The experiment is described as follows: Cell viability (CellTiter-Glo), H9. The settings on record: Homo sapiens; H9 cell line, 3-4 days of culture. How it is done:
as §2
Cell line H9 (ATCC, No. HTB-176) was cultured in 10% fetal bovine serum-containing RPMI1640 medium (+P/S).
as §3

Experiment [13] concerns LS 180. Nature of the experiment: Cell viability (CellTiter-Glo), LS 180. The note with it: Homo sapiens, LS180; LS 180 cell line, 3-4 days of culture. How it is done: as §2
Cell line LS 180 (ATCC, No. CL-187) was cultured in 10% fetal bovine serum-containing EMEM medium (+P/S).
as §3

Experiment [14] deals with AM-38. Nature of the experiment: Cell viability (CellTiter-Glo), AM-38. The settings on record: Homo sapiens; AM-38 cell line, 3-4 days of culture. How it is done: as §2
Cell line AM-38 (JCRB, No. IF050492) was cultured in EMEM medium containing 20% heat-inactivated fetal bovine serum (+P/S).
as §3

For `CCc1n(CC(=O)O[C@@H]2C[C@H](C)CC[C@H]2C(C)C)c2ccccc2[n+]1C.[Cl-]` [Gboxin], the IC50 was found to be 398 nM in experiment [1]; 16.6 µM in [2]; 777 nM in experiment [3]; 17.8 µM in experiment [4]; 2510 nM in experiment [5]; 3.88 µM in experiment [6]. Moreover, the IC50 in [7] was 2570 nM; in experiment [8], over 30 µM; in experiment [9] it was 13.9 µM; in experiment [10], 682 nM; in [11], 13.7 µM; in [12], 3.34 µM. For the same compound, the figures for the IC50 in experiment [13] and in experiment [14] were 8.9 µM and 10.3 µM, respectively.

Broadly, the IC50 is the concentration that inhibits the measured activity by half. Higher therefore signals weaker potency.
